Test [1] deals with Pfeiffer cell line (diffuse large B cell lymphoma). The test can be described thus: Pfeiffer cell proliferation assay. Particulars: Homo sapiens, Pfeiffer, Pfeiffer cells, 3-4 days plus 12 hours [3H]-thymidine incorporation. The test is classed as cell-based. Summed up:
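Pfeiffer DLBCL cells grown in RPMI/10% FBS at 2×10^3 cells/well in ultra-low-binding plates with a range of compound concentrations for 3-4 days. [3H]-thymidine (1 μCi/well) was then added for 12 h more. Incorporation was read by filtration and scintillation counting.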
Background: Dividing cells build labelled thymidine or BrdU into new DNA.

In test [2] the target is T1, PI3Kδ (p110δ/p85α) (Homo sapiens, UniProt O00329).
T1 construct: purchased Millipore (Bedford, Mass.)
T1 sequence (O00329 whole entry, species assumed): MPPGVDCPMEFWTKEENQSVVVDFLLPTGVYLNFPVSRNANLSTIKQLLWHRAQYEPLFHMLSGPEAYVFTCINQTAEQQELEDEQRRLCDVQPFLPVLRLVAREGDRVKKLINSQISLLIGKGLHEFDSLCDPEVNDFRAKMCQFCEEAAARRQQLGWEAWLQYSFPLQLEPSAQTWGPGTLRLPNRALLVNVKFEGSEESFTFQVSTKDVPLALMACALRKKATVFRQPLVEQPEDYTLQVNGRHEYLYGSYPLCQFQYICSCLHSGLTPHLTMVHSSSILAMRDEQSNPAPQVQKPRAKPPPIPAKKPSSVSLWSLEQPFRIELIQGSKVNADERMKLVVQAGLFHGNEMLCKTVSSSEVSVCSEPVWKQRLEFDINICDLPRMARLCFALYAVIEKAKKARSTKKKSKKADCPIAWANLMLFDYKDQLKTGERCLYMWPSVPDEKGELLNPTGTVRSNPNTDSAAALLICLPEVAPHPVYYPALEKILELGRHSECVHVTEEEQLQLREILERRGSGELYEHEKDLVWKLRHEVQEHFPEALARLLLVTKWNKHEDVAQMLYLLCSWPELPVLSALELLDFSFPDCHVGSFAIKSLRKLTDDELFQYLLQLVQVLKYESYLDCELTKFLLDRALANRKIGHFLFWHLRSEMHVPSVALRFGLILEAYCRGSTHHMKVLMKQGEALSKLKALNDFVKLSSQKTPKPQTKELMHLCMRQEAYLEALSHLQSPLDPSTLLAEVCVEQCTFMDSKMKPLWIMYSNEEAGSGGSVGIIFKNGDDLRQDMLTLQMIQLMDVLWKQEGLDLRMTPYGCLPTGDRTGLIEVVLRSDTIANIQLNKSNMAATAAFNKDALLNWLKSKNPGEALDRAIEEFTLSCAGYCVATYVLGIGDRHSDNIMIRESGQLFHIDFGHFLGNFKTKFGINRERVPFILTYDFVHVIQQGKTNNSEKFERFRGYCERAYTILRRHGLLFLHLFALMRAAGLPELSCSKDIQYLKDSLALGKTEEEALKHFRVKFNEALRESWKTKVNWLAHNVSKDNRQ
T1 sequence (P27986 whole entry partner, species assumed): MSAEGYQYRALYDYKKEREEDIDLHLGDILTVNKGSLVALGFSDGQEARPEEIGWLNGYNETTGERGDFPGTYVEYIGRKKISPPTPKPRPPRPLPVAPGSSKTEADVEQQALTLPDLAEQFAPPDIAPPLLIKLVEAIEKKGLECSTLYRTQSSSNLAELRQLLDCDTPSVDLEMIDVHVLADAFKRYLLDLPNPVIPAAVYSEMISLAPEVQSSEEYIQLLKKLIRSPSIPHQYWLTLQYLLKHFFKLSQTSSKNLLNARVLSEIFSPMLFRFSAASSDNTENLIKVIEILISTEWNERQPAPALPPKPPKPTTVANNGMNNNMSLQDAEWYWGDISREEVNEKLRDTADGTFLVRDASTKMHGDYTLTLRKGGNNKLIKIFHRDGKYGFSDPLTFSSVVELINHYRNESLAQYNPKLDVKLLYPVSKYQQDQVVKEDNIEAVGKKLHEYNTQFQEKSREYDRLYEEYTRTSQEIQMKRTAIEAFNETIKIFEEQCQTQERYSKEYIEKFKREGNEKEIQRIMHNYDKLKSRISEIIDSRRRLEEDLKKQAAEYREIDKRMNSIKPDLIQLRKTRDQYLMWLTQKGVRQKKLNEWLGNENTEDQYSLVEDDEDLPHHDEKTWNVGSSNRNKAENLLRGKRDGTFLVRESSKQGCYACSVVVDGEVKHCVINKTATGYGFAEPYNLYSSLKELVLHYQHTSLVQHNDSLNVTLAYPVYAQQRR
The test can be described thus: PI3Kδ scintillation proximity assay. It is filed as biochemical. Particulars: 20 μM ATP, 4 nM PI3Kδ. Summed up: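 Radiometric SPA: product captured on WGA beads after EDTA quench and counted, IC50 fitted against log inhibitor concentration. Reactions ran 210 min at room temperature with 4 nM PI3Kδ (p110δ/p85α), 20 μM each PIP2 and ATP plus 33P-ATP, pH 6.7 MOPS buffer, 0.5% DMSO final.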
(In general: In a scintillation proximity assay essentially only radioactivity close to the scintillant gives light.)

As a reminder, the IC50 is the midpoint of a concentration-inhibition curve. For `COCCN1CC(c2c(Cl)c(Cl)cc(C(C)Nc3ncnc4[nH]cnc34)c2OC)C1` (stereo not drawn) [Example 200, N-(1-{4,5-Dichloro-2-methoxy-3-[1-(2-methoxyethyl)azetidin-3-yl]phenyl}ethyl)-9H-purin-6-amine], the half-maximal inhibitory concentration (IC50) in test [1] is under 100 nM; in test [2], under 50 nM.
For `COc1c(C(C)Nc2ncnc3[nH]cnc23)cc(Cl)c(Cl)c1C1CN(CC2CC2)C1` (stereo not drawn) [Example 201, N-(1-{4,5-Dichloro-3-[1-(cyclopropylmethyl)azetidin-3-yl]-2-methoxyphenyl}ethyl)-9H-purin-6-amine] the same measures were under 100 nM and under 50 nM.
Take `COc1c(C(C)Nc2ncnc3[nH]cnc23)cc(Cl)c(Cl)c1C1CN(CC2CCOC2)C1` (stereo not drawn) [Example 202, N-(1-{4,5-dichloro-2-methoxy-3-[1-(tetrahydrofuran-3-ylmethyl)azetidin-3-yl]phenyl}ethyl)-9H-purin-6-amine]: the IC50 was under 100 nM in test [1] and under 50 nM in test [2].
Consider `COc1c(C(C)Nc2ncnc3[nH]cnc23)cc(Cl)c(Cl)c1C1CN(CCCC(F)(F)F)C1` (stereo not drawn) [Example 203, N-(1-{4,5-Dichloro-2-methoxy-3-[1-(4,4,4-trifluorobutyl)azetidin-3-yl]phenyl}ethyl)-9H-purin-6-amine], for which the IC50 in test [1] was under 100 nM; in test [2], under 50 nM.
Taken in the same sequence, the figures for `COc1c(C(C)Nc2ncnc3[nH]cnc23)cc(Cl)c(Cl)c1C1CN(Cc2cscn2)C1` (stereo not drawn) [Example 204, N-(1-{4,5-Dichloro-2-methoxy-3-[1-(1,3-thiazol-4-ylmethyl)azetidin-3-yl]phenyl}ethyl)-9H-purin-6-amine] were under 100 nM and under 50 nM.
For `COc1c(C(C)Nc2ncnc3[nH]cnc23)cc(Cl)c(Cl)c1C1CN(CCC(F)(F)F)C1` (stereo not drawn) [Example 205, N-(1-{4,5-Dichloro-2-methoxy-3-[1-(3,3,3-trifluoropropyl)azetidin-3-yl]phenyl}ethyl)-9H-purin-6-amine] the same measures were under 100 nM and under 50 nM.
Taken in the same sequence, the figures for `COc1c(C(C)Nc2ncnc3[nH]cnc23)cc(Cl)c(Cl)c1C1CN(C(C)CO)C1` (stereo not drawn) [Example 208, 2-(3-{2,3-Dichloro-6-methoxy-5-[1-(9H-purin-6-ylamino)ethyl]phenyl}azetidin-l-yl)propan-1-ol bistrifluoroacetate] were under 100 nM and under 50 nM.
Take `CCOc1c(C(C)Nc2ncnc3[nH]cnc23)cc(C#N)c(F)c1-c1cncc(S(C)(=O)=O)c1` (stereo not drawn) [Example 212, 4-Ethoxy-2-fluoro-3-[5-(methylsulfonyl)pyridin-3-yl]-5-[1-(9H-purin-6-ylamino)ethyl]benzonitrile bis(trifluoroacetate)]: the values for the IC50 in test [1] and in test [2] were 100 to 500 nM and under 50 nM, respectively.
Taken in the same sequence, the figures for `CCOc1c(C(C)Nc2ncnc3[nH]cnc23)cc(Cl)c(C#N)c1C1CN(CC)C1` (stereo not drawn) [Example 213, 6-Chloro-3-ethoxy-2-(1-ethylazetidin-3-yl)-4-[1-(9H-purin-6-ylamino)ethyl]benzonitrile bis(trifluoroacetate)] were under 100 nM and under 50 nM.

The values above are taken from US9815839B2, “N-(1-(substituted-phenyl)ethyl)-9H-purin-6-amines as PI3K inhibitors” (Incyte Corporation, priority 2010, dated 2017).
